# Laboratory results from US20130191933A1, “METHODS OF TREATING PAIN AND MORPHINE TOLERANCE VIA MODULATION OF HEDGEHOG SIGNALLING PATHWAY” (BOARD OF REGENTS, THE UNIVERSITY OF TEXAS SYSTEM, priority 2010, published 2013).
# “Also recorded” adds a separate entry of the source. Where two headings read alike, the source gives them in different places.
# Key:
# [1] = system: rats with sciatic nerve ligation (neuropathic pain); test: Neuropathic pain paradigm: sciatic nerve ligation, mechanical allodynia by Von Frey filaments; assay type: in vivo, Sprague-Dawley rats; details: rats two weeks after sciatic nerve ligation; daily intrathecal (lumbar puncture) drug; sub-clinical/low dose of morphine
# Description: Animals underwent sciatic nerve ligation as described (Chung et al.), and were then allowed to recover for two weeks. Allodynia was measured using mechanical withdrawal threshold (Von Frey hairs). […] Drugs were administered using lumbar puncture under anesthesia.
# Hh signaling modulates neuropathic pain, inflammatory pain, and opioid tolerance in rats. […] With regards to neuropathic pain, animals underwent sciatic nerve ligation as previously described in Chung et al., and were then allowed to recover for two weeks. Allodynia was measured by assessing the withdrawal threshold to a mechanical stimulus (Von Frey hairs). […] Drugs were administered using lumbar puncture under anesthesia.
# To test this, we examined the effects of pharmacologically blocking Smoothened activity in rodent pain models. Injection of Complete Freund's Adjuvant (CFA) into the rat hindpaw causes local inflammation, swelling, and decreased nociceptive thresholds, Stein, C., et al., A. Unilateral inflammation of the Hindpaw in rats as a Model of Prolonged Noxious Stimulation: Alterations in Behavior and Nociceptive Thresholds, Pharmacol Biochem Behav 31, […] (1988). FIG. 11 provides an inflammatory pain paradigm. Here, the hindpaws were injected with saline (sham, n=6), or CFA. […] Similarly, FIG. 10 provides a neuropathic pain paradigm. […] Mechanical allodynia was assessed using Von Frey filaments. […]
# [2] = system: rats with complete Freund's adjuvant (CFA) injection (inflammatory pain); test: Inflammatory pain paradigm: CFA hindpaw injection, thermal hyperalgesia by paw withdrawal latency (PWL); assay type: in vivo, Sprague-Dawley rats; details: rats after CFA hindpaw injection; for analgesic effect on thermal hyperalgesia (paw withdrawal latency, PWL): intrathecal (lumbar puncture) drug, Days 1-4; for development of tolerance to the analgesic effect (PWL): repeated intrathecal dosing
# Description: Animals underwent complete Freund's adjuvant (CFA) injection under anesthesia. Hyperalgesia was then measured using withdrawal latency of the paw to a thermal stimulus (PWL). […] Drugs were administered using lumbar puncture under anesthesia.
# Hyperalgesia was then measured using withdrawal latency of the paw to a thermal stimulus (PWL). […] Drugs were administered using lumbar puncture under anesthesia..
# To test this, we examined the effects of pharmacologically blocking Smoothened activity in rodent pain models. Injection of Complete Freund's Adjuvant (CFA) into the rat hindpaw causes local inflammation, swelling, and decreased nociceptive thresholds, Stein, C., et al., A. Unilateral inflammation of the Hindpaw in rats as a Model of Prolonged Noxious Stimulation: Alterations in Behavior and Nociceptive Thresholds, Pharmacol Biochem Behav 31, […] (1988). FIG. 11 provides an inflammatory pain paradigm. Here, the hindpaws were injected with saline (sham, n=6), or CFA. […] Similarly, FIG. 10 provides a neuropathic pain paradigm. […] Animals received daily intrathecal injections of vehicle (n=3) or drugs (CP, n=6; MS, n=6; or MS+CP, n=5). Mechanical allodynia was assessed using Von Frey filaments. […] All data are+/−S.E.M.
# Animals: Sprague-Dawley rats (male, […]) were housed three to a cage with water and food ad libitum and kept in temperature controlled rooms on a 12:12 hour light-dark cycle, with the dark cycle beginning at 7:00 pm. Animals were habituated to the testing environment for one week prior to testing and all tests were performed in the morning. All protocols were approved by our Institutional Animal Care and Use Committee.
# (§1) Drugs and Intermittent Lumbar Puncture: Rats were anesthetized with 2% isoflurane in oxygen. The lumbar region was shaved, prepared with Betadine solution and the intervertebral spaces widened by placing the animal on a plexiglas tube.
# Complete Freund's Adjuvant (CFA) […]: Under isoflurane […], the plantar surface of the left hindpaw was cleansed and 100 μl of CFA (Sigma, St. Louis, Mo.) injected using a 25-gauge needle. Animals recovered for 24 hours prior to analgesic testing.
# Paw Withdrawal Latency (PWL): PWL was measured by placing the animals in Plexiglas cages (9×22×25 cm.) on a modified Hargreaves Device, consisting of a glass surface maintained at 30° C. A stimulus lamp was focused on the tail with three measurements taken on different portions of the tail. An abrupt flick of the tail secondary to the thermal stimulus was sensed by photodiodes, and this served to terminate the stimulus and stop the timer. Animals were habituated to the device for one week prior to testing and for 30 min before each test session. The intensity of the thermal stimulus used in the TFL test was adjusted so baseline TFL was between 10-12 seconds to 20 second was used as an automatic cutoff time to avoid paw damage. The TFLs at the time points of 15, 30, and 45 minutes post-injection were measured and compared (n=6-8 per group).
# Shh = Shh (Homo sapiens, UniProt Q15465); details: cited from earlier work
# Shh, sequence (Q15465 24-462, species assumed): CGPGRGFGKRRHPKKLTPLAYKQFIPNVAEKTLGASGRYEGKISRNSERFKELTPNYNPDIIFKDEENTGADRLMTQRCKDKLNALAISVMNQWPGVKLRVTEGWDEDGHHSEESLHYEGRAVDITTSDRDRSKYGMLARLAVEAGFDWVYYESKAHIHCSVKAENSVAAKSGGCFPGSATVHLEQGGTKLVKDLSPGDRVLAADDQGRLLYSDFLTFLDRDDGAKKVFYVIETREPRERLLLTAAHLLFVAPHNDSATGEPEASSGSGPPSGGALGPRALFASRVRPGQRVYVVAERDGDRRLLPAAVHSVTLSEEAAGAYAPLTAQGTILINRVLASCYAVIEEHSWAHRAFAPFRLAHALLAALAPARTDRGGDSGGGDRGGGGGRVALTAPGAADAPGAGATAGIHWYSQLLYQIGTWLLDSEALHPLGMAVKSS
# [3] = system: Gli-mediated transcription; details: in a variety of cell types (Cur-61414: cell and tissues types; Robotnikinin: also synthetic human tissue); cited from earlier work
# [4] = system: Gli1, Gli2, PtchI and other Shh-target genes; details: in a variety of cell types; cited from earlier work
# Smo = Smo (Homo sapiens, UniProt Q99835); details: cited from earlier work
# Smo, sequence (Q99835 28-787): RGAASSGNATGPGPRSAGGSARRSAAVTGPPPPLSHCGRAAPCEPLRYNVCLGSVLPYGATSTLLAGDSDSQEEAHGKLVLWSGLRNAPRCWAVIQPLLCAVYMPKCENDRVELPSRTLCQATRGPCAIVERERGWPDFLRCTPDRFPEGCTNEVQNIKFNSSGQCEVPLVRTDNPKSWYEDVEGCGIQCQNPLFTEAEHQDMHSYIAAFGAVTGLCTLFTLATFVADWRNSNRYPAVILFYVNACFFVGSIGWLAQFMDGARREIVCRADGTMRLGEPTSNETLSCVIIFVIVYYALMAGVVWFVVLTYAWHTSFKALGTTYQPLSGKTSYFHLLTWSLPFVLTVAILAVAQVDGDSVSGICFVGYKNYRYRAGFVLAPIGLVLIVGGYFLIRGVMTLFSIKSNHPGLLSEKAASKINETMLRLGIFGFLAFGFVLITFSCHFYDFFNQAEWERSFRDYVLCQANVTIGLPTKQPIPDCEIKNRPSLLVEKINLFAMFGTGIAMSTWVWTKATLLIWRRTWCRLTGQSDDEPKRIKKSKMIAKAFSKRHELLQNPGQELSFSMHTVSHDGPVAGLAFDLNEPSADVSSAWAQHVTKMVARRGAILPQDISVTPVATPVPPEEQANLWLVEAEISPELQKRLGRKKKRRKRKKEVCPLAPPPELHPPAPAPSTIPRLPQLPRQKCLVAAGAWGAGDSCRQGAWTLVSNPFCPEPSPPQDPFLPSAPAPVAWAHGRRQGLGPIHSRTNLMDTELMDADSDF
# [5] = system: morphine tolerance in rats; test: Morphine tolerance assessed by tail flick latency (TFL); assay type: in vivo
# Description: (§2) Drugs were administered daily using lumbar puncture under anesthesia. Tolerance was then assessed using tail flick latency (TFL), or the withdrawal latency of the tail to a thermal stimulus. […] On Day 8, all animals received morphine alone.
# as §2, §1
smiles,measurement,setting,value
CN1CC[C@]23c4c5ccc(O)c4O[C@H]2[C@@H](O)C=C[C@H]3[C@H]1C5 [morphine],"analgesic effect on mechanical allodynia (mechanical withdrawal threshold, Von Frey)",[1],Neither morphine or cyclopamine had analgesic effects; also recorded: Neither a sub-clinical dose of morphine nor cyclopamine had analgesic effects; also recorded: neither cyclopamine nor a low dose of morphine had analgesic effects alone
same,"analgesic effect on thermal hyperalgesia (paw withdrawal latency, PWL)",[2],caused analgesia
same,"analgesic effect on thermal hyperalgesia (paw withdrawal latency, PWL)",[2]; listed as Morphine,exhibited analgesic effects
same,development of tolerance to the analgesic effect (PWL),[2],tolerance developed with repeated dosing
same,development of tolerance to the analgesic effect (PWL),[2]; listed as Morphine,tolerance developed rapidly
O=C(C[C@@H]1C/C=C/CCC(=O)O[C@H](c2ccccc2)CNC1=O)NCc1ccc(Cl)cc1 [Robotnikinin],direct binding to Shh,Shh,binds directly to Sonic Hedgehog; also recorded: Binds directly to Shh
same,Gli-mediated transcription,[3],Represses Gli-medicated transcription in a variety of cell types and
CC1=C2C(=O)[C@H]3[C@@H](CC=C4C[C@@H](O)CC[C@@]43C)[C@@H]2CC[C@]12O[C@@H]1C[C@H](C)CN[C@H]1[C@H]2C [Jervine],"transcription of Gli1, Gli2, PtchI and other Shh-target genes",[4],"Inhibits transcription of Gli1, Gli2, PtchI and other Shh-target"
same,targeting / binding of Smo,Smo,Targets Smo
same,targeting / binding of Smo,Smo; listed as jervine,target Smo
CC1=C2C[C@H]3[C@@H](CC=C4C[C@@H](O)CC[C@@]43C)[C@@H]2CC[C@]12O[C@@H]1C[C@H](C)CN[C@H]1[C@H]2C [Cyclopamine],"analgesic effect on mechanical allodynia (mechanical withdrawal threshold, Von Frey)",[1],Neither morphine or cyclopamine had analgesic effects; also recorded: Neither a sub-clinical dose of morphine nor cyclopamine had analgesic effects; also recorded: neither cyclopamine nor a low dose of morphine had analgesic effects alone
same,"reversal of morphine tolerance (tail flick latency, TFL)","[5]; daily lumbar puncture, cyclopamine added to morphine from start, Day 3 or Day 5",completely reversed tolerance within two days; also recorded: reverses the development of morphine tolerance
same,tolerance on Day 8 after cyclopamine was removed (TFL),[5]; on Day 8 all animals received morphine alone,animals were not tolerant on Day 8
same,"analgesic effect on thermal hyperalgesia (paw withdrawal latency, PWL)",[2],mild analgesic effect that plateaued
same,"analgesic effect on thermal hyperalgesia (paw withdrawal latency, PWL)",[2]; listed as cyclopamine,mild analgesic effect that plateaued; also recorded: had no analgesic effect
same,targeting / binding of Smo,Smo,Targets Smo
same,targeting / binding of Smo,Smo; listed as cyclopamine,target Smo
